Experimental data from the NIST ThermoML archive (doi:10.1021/je034087q).
± gives the expanded uncertainty stated by the source.

Assay: xn = mol fraction of the nth substance listed

CC(C)=O [acetone] + O=C=O
Conditions | mass density [kg/m3]
323.15 K, 9680 kPa, Fluid (supercritical or subcritical phases), x2 = 0.952 | 588 ± 4
323.15 K, 9710 kPa, Fluid (supercritical or subcritical phases), x2 = 0.902 | 707 ± 4
323.15 K, 9750 kPa, Fluid (supercritical or subcritical phases), x2 = 0.933 | 656 ± 4
323.15 K, 9750 kPa, Fluid (supercritical or subcritical phases), x2 = 0.952 | 594 ± 4
323.15 K, 9840 kPa, Fluid (supercritical or subcritical phases), x2 = 0.948 | 625 ± 4
323.15 K, 9850 kPa, Fluid (supercritical or subcritical phases), x2 = 0.952 | 603 ± 4
323.15 K, 9870 kPa, Fluid (supercritical or subcritical phases), x2 = 0.902 | 711 ± 4
323.15 K, 9900 kPa, Fluid (supercritical or subcritical phases), x2 = 0.811 | 790 ± 5
323.15 K, 9900 kPa, Fluid (supercritical or subcritical phases), x2 = 0.882 | 743 ± 5
323.15 K, 9900 kPa, Fluid (supercritical or subcritical phases), x2 = 0.933 | 664 ± 4
323.15 K, 9940 kPa, Fluid (supercritical or subcritical phases), x2 = 0.952 | 611 ± 4
323.15 K, 9960 kPa, Fluid (supercritical or subcritical phases), x2 = 0.772 | 803 ± 5
323.15 K, 10020 kPa, Fluid (supercritical or subcritical phases), x2 = 0.902 | 715 ± 4
323.15 K, 10030 kPa, Fluid (supercritical or subcritical phases), x2 = 0.948 | 638 ± 4
323.15 K, 10050 kPa, Fluid (supercritical or subcritical phases), x2 = 0.933 | 669 ± 4
323.15 K, 10100 kPa, Fluid (supercritical or subcritical phases), x2 = 0.952 | 623 ± 4
323.15 K, 10160 kPa, Fluid (supercritical or subcritical phases), x2 = 0.902 | 719 ± 4
323.15 K, 10220 kPa, Fluid (supercritical or subcritical phases), x2 = 0.933 | 678 ± 4
323.15 K, 10290 kPa, Fluid (supercritical or subcritical phases), x2 = 0.882 | 748 ± 5
323.15 K, 10290 kPa, Fluid (supercritical or subcritical phases), x2 = 0.948 | 651 ± 4
323.15 K, 10320 kPa, Fluid (supercritical or subcritical phases), x2 = 0.952 | 636 ± 4
323.15 K, 10360 kPa, Fluid (supercritical or subcritical phases), x2 = 0.902 | 722 ± 5
323.15 K, 10420 kPa, Fluid (supercritical or subcritical phases), x2 = 0.933 | 684 ± 4
323.15 K, 10440 kPa, Fluid (supercritical or subcritical phases), x2 = 0.576 | 818 ± 5
323.15 K, 10490 kPa, Fluid (supercritical or subcritical phases), x2 = 0.811 | 796 ± 5
323.15 K, 10540 kPa, Fluid (supercritical or subcritical phases), x2 = 0.772 | 807 ± 5
323.15 K, 10570 kPa, Fluid (supercritical or subcritical phases), x2 = 0.902 | 727 ± 5
323.15 K, 10590 kPa, Fluid (supercritical or subcritical phases), x2 = 0.952 | 649 ± 4
323.15 K, 10600 kPa, Fluid (supercritical or subcritical phases), x2 = 0.948 | 666 ± 4
323.15 K, 10630 kPa, Fluid (supercritical or subcritical phases), x2 = 0.882 | 754 ± 5
323.15 K, 10640 kPa, Fluid (supercritical or subcritical phases), x2 = 0.933 | 693 ± 4
323.15 K, 10780 kPa, Fluid (supercritical or subcritical phases), x2 = 0.902 | 733 ± 5
323.15 K, 10800 kPa, Fluid (supercritical or subcritical phases), x2 = 0.186 | 785 ± 5
323.15 K, 10880 kPa, Fluid (supercritical or subcritical phases), x2 = 0.933 | 699 ± 4
323.15 K, 10920 kPa, Fluid (supercritical or subcritical phases), x2 = 0.952 | 663 ± 4
323.15 K, 10950 kPa, Fluid (supercritical or subcritical phases), x2 = 0.882 | 761 ± 5
323.15 K, 10980 kPa, Fluid (supercritical or subcritical phases), x2 = 0.948 | 679 ± 4
323.15 K, 10990 kPa, Fluid (supercritical or subcritical phases), x2 = 0.811 | 801 ± 5
323.15 K, 11000 kPa, Fluid (supercritical or subcritical phases), x2 = 0.902 | 736 ± 5
323.15 K, 11060 kPa, Fluid (supercritical or subcritical phases), x2 = 0.772 | 811 ± 5
323.15 K, 11160 kPa, Fluid (supercritical or subcritical phases), x2 = 0.933 | 707 ± 4
323.15 K, 11260 kPa, Fluid (supercritical or subcritical phases), x2 = 0.902 | 740 ± 5
323.15 K, 11280 kPa, Fluid (supercritical or subcritical phases), x2 = 0.952 | 678 ± 4
323.15 K, 11440 kPa, Fluid (supercritical or subcritical phases), x2 = 0.882 | 764 ± 5
323.15 K, 11460 kPa, Fluid (supercritical or subcritical phases), x2 = 0.933 | 714 ± 4
323.15 K, 11480 kPa, Fluid (supercritical or subcritical phases), x2 = 0.811 | 805 ± 5
323.15 K, 11480 kPa, Fluid (supercritical or subcritical phases), x2 = 0.948 | 696 ± 4
323.15 K, 11500 kPa, Fluid (supercritical or subcritical phases), x2 = 0.902 | 744 ± 5
323.15 K, 11640 kPa, Fluid (supercritical or subcritical phases), x2 = 0.383 | 806 ± 5
323.15 K, 11760 kPa, Fluid (supercritical or subcritical phases), x2 = 0.772 | 815 ± 5
323.15 K, 11760 kPa, Fluid (supercritical or subcritical phases), x2 = 0.902 | 751 ± 5
323.15 K, 11780 kPa, Fluid (supercritical or subcritical phases), x2 = 0.952 | 694 ± 4
323.15 K, 11800 kPa, Fluid (supercritical or subcritical phases), x2 = 0.933 | 724 ± 5
323.15 K, 11870 kPa, Fluid (supercritical or subcritical phases), x2 = 0.576 | 825 ± 5
323.15 K, 11870 kPa, Fluid (supercritical or subcritical phases), x2 = 0.882 | 769 ± 5
323.15 K, 11950 kPa, Fluid (supercritical or subcritical phases), x2 = 0.811 | 807 ± 5
323.15 K, 12030 kPa, Fluid (supercritical or subcritical phases), x2 = 0.902 | 754 ± 5
323.15 K, 12090 kPa, Fluid (supercritical or subcritical phases), x2 = 0.948 | 711 ± 4
323.15 K, 12200 kPa, Fluid (supercritical or subcritical phases), x2 = 0.933 | 731 ± 5
323.15 K, 12260 kPa, Fluid (supercritical or subcritical phases), x2 = 0.882 | 779 ± 5
323.15 K, 12300 kPa, Fluid (supercritical or subcritical phases), x2 = 0.902 | 757 ± 5
323.15 K, 12370 kPa, Fluid (supercritical or subcritical phases), x2 = 0.772 | 818 ± 5
323.15 K, 12400 kPa, Fluid (supercritical or subcritical phases), x2 = 0.952 | 710 ± 4
323.15 K, 12560 kPa, Fluid (supercritical or subcritical phases), x2 = 0.811 | 813 ± 5
323.15 K, 12620 kPa, Fluid (supercritical or subcritical phases), x2 = 0.902 | 762 ± 5
323.15 K, 12620 kPa, Fluid (supercritical or subcritical phases), x2 = 0.933 | 740 ± 5
323.15 K, 12680 kPa, Fluid (supercritical or subcritical phases), x2 = 0.186 | 788 ± 5
323.15 K, 12750 kPa, Fluid (supercritical or subcritical phases), x2 = 0.948 | 727 ± 5
323.15 K, 12960 kPa, Fluid (supercritical or subcritical phases), x2 = 0.902 | 769 ± 5
323.15 K, 12970 kPa, Fluid (supercritical or subcritical phases), x2 = 0.882 | 785 ± 5
323.15 K, 13090 kPa, Fluid (supercritical or subcritical phases), x2 = 0.811 | 818 ± 5
323.15 K, 13130 kPa, Fluid (supercritical or subcritical phases), x2 = 0.772 | 823 ± 5
323.15 K, 13130 kPa, Fluid (supercritical or subcritical phases), x2 = 0.933 | 748 ± 5
323.15 K, 13170 kPa, Fluid (supercritical or subcritical phases), x2 = 0.952 | 726 ± 5
323.15 K, 13190 kPa, Fluid (supercritical or subcritical phases), x2 = 0.576 | 829 ± 5
323.15 K, 13240 kPa, Fluid (supercritical or subcritical phases), x2 = 0.902 | 771 ± 5
323.15 K, 13450 kPa, Fluid (supercritical or subcritical phases), x2 = 0.902 | 775 ± 5
323.15 K, 13560 kPa, Fluid (supercritical or subcritical phases), x2 = 0.383 | 813 ± 5
323.15 K, 13560 kPa, Fluid (supercritical or subcritical phases), x2 = 0.882 | 791 ± 5
323.15 K, 13610 kPa, Fluid (supercritical or subcritical phases), x2 = 0.811 | 821 ± 5
323.15 K, 13640 kPa, Fluid (supercritical or subcritical phases), x2 = 0.948 | 744 ± 5
323.15 K, 13700 kPa, Fluid (supercritical or subcritical phases), x2 = 0.933 | 758 ± 5
323.15 K, 13770 kPa, Fluid (supercritical or subcritical phases), x2 = 0.902 | 776 ± 5
323.15 K, 13790 kPa, Fluid (supercritical or subcritical phases), x2 = 0.772 | 827 ± 5
323.15 K, 14080 kPa, Fluid (supercritical or subcritical phases), x2 = 0.186 | 789 ± 5
323.15 K, 14080 kPa, Fluid (supercritical or subcritical phases), x2 = 0.952 | 744 ± 5
323.15 K, 14100 kPa, Fluid (supercritical or subcritical phases), x2 = 0.902 | 781 ± 5
323.15 K, 14290 kPa, Fluid (supercritical or subcritical phases), x2 = 0.933 | 767 ± 5
323.15 K, 14430 kPa, Fluid (supercritical or subcritical phases), x2 = 0.902 | 785 ± 5
323.15 K, 14460 kPa, Fluid (supercritical or subcritical phases), x2 = 0.811 | 826 ± 5
323.15 K, 14550 kPa, Fluid (supercritical or subcritical phases), x2 = 0.772 | 831 ± 5
323.15 K, 14550 kPa, Fluid (supercritical or subcritical phases), x2 = 0.882 | 800 ± 5
323.15 K, 14590 kPa, Fluid (supercritical or subcritical phases), x2 = 0.952 | 751 ± 5
323.15 K, 14730 kPa, Fluid (supercritical or subcritical phases), x2 = 0.948 | 762 ± 5
323.15 K, 14780 kPa, Fluid (supercritical or subcritical phases), x2 = 0.902 | 789 ± 5
323.15 K, 14810 kPa, Fluid (supercritical or subcritical phases), x2 = 0.383 | 817 ± 5
323.15 K, 14920 kPa, Fluid (supercritical or subcritical phases), x2 = 0.933 | 777 ± 5
323.15 K, 14950 kPa, Fluid (supercritical or subcritical phases), x2 = 0.186 | 791 ± 5
323.15 K, 15040 kPa, Fluid (supercritical or subcritical phases), x2 = 0.576 | 834 ± 5
323.15 K, 15140 kPa, Fluid (supercritical or subcritical phases), x2 = 0.902 | 792 ± 5
323.15 K, Liquid, Other PVT measurement, x2 = 0.186 | 760 ± 2
323.15 K, Liquid, Other PVT measurement, x2 = 0.383 | 787 ± 2
323.15 K, Liquid, Other PVT measurement, x2 = 0.576 | 795 ± 2
323.15 K, Liquid, Other PVT measurement, x2 = 0.772 | 779 ± 2
323.15 K, Liquid, Other PVT measurement, x2 = 0.811 | 758 ± 2
323.15 K, Liquid, Other PVT measurement, x2 = 0.882 | 701 ± 2
323.15 K, Liquid, Other PVT measurement, x2 = 0.902 | 672 ± 2
323.15 K, Liquid, Other PVT measurement, x2 = 0.933 | 584 ± 2
326.65 K, 9160 kPa, Fluid (supercritical or subcritical phases), x2 = 0.933 | 528 ± 3
326.65 K, 9180 kPa, Fluid (supercritical or subcritical phases), x2 = 0.933 | 531 ± 3
